Assays:
Assay in all cases: scanMAX KINOMEscan (Eurofins)
Type in all cases: binding
[1] = biological target: TNNI3K (Homo sapiens, UniProt Q59H18); settings: 1000 nM, read-out: Percent Control
Text: (§1) Supplement cb5c00097_si_002.xlsx, sheet "Table S6 (Eurofins Selectivity)" | column: Percent Control

[2] = biological target: SBK1 (Homo sapiens, UniProt Q52WX2); settings: compound concentration 100 nM; Entrez SBK1; read-out: Percent Control
Text: as §1

[3] = biological target: MAP4K4 (Homo sapiens, UniProt O95819); settings: 1000 nM, read-out: Percent Control
Text: as §1

[4] = biological target: AURKB (Homo sapiens, UniProt Q96GD4); settings: read-out: Percent Control
Sequence of AURKB (Q96GD4 whole entry): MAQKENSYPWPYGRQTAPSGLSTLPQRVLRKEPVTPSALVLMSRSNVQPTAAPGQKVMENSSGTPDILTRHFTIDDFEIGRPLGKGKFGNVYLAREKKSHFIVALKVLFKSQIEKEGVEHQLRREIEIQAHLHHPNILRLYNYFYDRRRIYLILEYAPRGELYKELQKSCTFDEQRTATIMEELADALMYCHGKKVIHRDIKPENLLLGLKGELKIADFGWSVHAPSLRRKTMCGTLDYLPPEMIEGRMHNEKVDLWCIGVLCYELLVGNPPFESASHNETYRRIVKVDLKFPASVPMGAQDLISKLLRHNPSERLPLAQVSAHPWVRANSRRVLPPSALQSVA
Text: as §1

[5] = biological target: MAP4K2 (Homo sapiens, UniProt Q12851); settings: 1000 nM, read-out: Percent Control
Text: as §1

[6] = biological target: RSK3(Kin.Dom.1-N-terminal) (Homo sapiens, UniProt Q15349); settings: 1000 nM, read-out: Percent Control
Sequence of RSK3(Kin.Dom.1-N-terminal) (Q15349 1-388): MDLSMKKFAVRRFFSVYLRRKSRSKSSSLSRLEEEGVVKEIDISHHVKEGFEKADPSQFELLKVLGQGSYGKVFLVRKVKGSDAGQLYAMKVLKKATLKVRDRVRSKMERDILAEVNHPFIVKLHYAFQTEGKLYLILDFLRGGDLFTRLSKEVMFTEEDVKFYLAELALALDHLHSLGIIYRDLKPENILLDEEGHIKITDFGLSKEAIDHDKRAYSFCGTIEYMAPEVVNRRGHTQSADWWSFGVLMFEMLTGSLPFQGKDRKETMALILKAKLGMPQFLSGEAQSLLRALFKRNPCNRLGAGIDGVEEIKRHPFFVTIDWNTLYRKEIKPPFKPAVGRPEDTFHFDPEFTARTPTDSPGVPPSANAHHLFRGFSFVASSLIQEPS
Text: as §1

[7] = biological target: RIPK5 (Homo sapiens, UniProt Q6XUX3); settings: compound concentration 100 nM; Entrez DSTYK; read-out: Percent Control
Text: as §1

[8] = biological target: DMPK2 (Homo sapiens, UniProt Q6DT37); settings: read-out: Percent Control
Sequence of DMPK2 (Q6DT37 whole entry): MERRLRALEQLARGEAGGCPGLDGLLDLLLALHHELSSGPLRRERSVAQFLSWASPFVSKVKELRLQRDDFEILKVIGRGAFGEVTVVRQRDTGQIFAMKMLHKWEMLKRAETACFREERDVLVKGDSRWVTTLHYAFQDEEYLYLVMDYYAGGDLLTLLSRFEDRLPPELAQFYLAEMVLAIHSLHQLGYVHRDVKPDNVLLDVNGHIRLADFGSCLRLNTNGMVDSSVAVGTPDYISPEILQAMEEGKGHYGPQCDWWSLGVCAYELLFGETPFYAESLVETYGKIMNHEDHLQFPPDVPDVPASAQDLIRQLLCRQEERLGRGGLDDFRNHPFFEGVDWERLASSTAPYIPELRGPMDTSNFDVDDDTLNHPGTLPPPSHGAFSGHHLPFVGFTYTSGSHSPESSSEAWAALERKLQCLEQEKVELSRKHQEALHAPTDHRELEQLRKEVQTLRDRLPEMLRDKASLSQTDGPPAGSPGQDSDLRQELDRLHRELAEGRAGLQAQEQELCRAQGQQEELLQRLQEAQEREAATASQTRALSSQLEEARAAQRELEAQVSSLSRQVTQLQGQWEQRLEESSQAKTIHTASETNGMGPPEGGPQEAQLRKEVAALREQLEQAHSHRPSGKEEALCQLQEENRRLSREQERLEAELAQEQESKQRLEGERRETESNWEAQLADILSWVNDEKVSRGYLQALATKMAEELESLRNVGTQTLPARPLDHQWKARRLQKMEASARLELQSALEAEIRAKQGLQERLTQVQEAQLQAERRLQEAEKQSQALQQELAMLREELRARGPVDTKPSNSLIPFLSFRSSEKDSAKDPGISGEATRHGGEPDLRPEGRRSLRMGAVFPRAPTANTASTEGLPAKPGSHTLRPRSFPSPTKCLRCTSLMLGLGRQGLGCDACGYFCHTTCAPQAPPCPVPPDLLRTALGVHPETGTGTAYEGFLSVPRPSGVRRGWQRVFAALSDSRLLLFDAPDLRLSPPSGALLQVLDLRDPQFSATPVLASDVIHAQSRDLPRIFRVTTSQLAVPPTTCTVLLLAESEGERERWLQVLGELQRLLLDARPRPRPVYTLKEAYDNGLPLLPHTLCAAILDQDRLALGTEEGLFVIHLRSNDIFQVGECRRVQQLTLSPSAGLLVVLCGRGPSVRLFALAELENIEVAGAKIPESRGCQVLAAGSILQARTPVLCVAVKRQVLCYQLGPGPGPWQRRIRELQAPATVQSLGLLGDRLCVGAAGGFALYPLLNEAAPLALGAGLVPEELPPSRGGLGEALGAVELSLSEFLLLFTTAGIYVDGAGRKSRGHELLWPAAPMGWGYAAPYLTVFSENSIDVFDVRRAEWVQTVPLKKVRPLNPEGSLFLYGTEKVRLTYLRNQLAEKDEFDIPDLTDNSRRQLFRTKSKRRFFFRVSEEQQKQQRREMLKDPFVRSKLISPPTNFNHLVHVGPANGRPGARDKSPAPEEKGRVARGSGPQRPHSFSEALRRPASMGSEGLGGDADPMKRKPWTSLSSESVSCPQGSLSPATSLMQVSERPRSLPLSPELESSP
Text: as §1

[9] = biological target: EIF2AK1 (Homo sapiens, UniProt Q9BQI3); settings: 1000 nM, read-out: Percent Control
Text: as §1

[10] = biological target: NDR1 (Homo sapiens, UniProt Q15208); settings: 1000 nM, read-out: Percent Control
Text: as §1

[11] = biological target: LATS1 (Homo sapiens, UniProt O95835); settings: 1000 nM, read-out: Percent Control
Text: as §1

[12] = biological target: TIE1 (Homo sapiens, UniProt P35590); settings: 1000 nM, read-out: Percent Control
Text: as §1

[13] = biological target: YSK1 (Homo sapiens, UniProt O00506); settings: compound concentration 100 nM; Entrez STK25; read-out: Percent Control
Text: as §1

[14] = biological target: PIP5K2B (Homo sapiens, UniProt P78356); settings: 1000 nM, read-out: Percent Control
Text: as §1

[15] = biological target: FGR (Homo sapiens, UniProt P09769); settings: read-out: Percent Control
Sequence of FGR (P09769 whole entry): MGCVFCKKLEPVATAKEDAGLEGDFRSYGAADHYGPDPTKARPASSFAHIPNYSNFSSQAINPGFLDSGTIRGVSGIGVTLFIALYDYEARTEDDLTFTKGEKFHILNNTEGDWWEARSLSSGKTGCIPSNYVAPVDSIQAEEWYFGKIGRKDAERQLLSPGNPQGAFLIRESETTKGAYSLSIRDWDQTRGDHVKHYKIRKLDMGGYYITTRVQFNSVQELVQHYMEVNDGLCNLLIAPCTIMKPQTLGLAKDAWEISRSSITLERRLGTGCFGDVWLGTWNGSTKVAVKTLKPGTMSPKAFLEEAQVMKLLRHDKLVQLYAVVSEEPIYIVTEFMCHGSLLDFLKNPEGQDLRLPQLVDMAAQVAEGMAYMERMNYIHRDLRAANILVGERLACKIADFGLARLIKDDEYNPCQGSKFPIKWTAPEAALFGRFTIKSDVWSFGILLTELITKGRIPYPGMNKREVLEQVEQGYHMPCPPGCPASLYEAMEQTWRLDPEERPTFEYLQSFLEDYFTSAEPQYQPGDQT
Text: as §1

[16] = biological target: IRAK1 (Homo sapiens, UniProt P51617); settings: read-out: Percent Control
Sequence of IRAK1 (P51617 whole entry): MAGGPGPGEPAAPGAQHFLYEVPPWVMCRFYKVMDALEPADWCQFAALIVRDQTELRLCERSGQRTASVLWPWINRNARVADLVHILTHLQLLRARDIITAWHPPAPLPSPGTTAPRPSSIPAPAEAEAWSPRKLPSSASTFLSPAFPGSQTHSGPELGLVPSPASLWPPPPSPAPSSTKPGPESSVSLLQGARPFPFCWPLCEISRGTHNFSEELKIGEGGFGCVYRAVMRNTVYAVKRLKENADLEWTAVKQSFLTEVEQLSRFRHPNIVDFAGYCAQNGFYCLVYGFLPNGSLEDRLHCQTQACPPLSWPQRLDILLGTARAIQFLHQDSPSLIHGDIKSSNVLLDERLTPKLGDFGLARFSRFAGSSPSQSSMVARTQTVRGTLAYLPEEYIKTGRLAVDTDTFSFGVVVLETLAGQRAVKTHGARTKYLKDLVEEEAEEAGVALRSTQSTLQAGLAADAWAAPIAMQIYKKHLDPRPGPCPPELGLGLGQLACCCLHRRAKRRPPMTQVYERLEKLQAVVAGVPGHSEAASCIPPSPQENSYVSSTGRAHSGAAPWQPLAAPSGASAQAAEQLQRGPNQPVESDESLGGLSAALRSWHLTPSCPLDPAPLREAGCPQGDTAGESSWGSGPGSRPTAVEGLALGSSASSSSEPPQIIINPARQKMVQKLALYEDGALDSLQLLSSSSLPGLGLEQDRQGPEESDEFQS
Text: as §1

[17] = biological target: GRK3 (Homo sapiens, UniProt P35626); settings: 1000 nM, read-out: Percent Control
Text: as §1

[18] = biological target: PAK2 (Homo sapiens, UniProt Q13177); settings: 1000 nM, read-out: Percent Control
Text: as §1

[19] = biological target: PKAC-beta (Homo sapiens, UniProt P22694); settings: 1000 nM, read-out: Percent Control
Text: as §1

[20] = biological target: EPHA2 (Homo sapiens, UniProt P29317); settings: read-out: Percent Control
Sequence of EPHA2 (P29317 24-976): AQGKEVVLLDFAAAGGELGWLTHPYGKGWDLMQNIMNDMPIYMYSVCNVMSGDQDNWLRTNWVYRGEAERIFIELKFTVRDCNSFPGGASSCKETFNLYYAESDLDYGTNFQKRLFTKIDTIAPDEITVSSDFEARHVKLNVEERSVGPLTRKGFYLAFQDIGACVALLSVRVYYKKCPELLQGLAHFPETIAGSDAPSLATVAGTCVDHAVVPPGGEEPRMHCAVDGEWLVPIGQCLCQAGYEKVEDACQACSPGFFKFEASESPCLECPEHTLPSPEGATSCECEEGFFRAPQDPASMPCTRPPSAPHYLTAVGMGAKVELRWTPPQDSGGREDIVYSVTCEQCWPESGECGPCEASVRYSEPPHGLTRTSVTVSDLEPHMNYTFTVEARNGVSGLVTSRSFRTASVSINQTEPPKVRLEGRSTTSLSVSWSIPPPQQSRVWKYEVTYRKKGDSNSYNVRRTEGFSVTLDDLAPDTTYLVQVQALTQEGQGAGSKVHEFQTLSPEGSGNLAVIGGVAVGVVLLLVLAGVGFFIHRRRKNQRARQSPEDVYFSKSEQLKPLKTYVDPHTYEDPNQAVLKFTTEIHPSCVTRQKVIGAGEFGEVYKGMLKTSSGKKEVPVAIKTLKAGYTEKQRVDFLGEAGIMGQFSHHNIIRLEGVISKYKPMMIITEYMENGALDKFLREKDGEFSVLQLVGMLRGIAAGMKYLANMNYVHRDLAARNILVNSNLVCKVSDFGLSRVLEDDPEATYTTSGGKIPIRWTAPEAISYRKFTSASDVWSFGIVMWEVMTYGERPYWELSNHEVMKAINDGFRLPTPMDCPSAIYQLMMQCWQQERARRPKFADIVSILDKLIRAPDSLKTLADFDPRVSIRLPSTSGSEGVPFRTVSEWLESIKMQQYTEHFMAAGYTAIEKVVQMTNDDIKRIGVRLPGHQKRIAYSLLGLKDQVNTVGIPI
Text: as §1

[21] = biological target: MAPKAPK5 (Homo sapiens, UniProt Q8IW41); settings: compound concentration 100 nM; Entrez MAPKAPK5; read-out: Percent Control
Text: as §1

[22] = biological target: TESK1 (Homo sapiens, UniProt Q15569); settings: 1000 nM, read-out: Percent Control
Text: as §1

[23] = biological target: NEK4 (Homo sapiens, UniProt P51957); settings: compound concentration 100 nM; Entrez NEK4; read-out: Percent Control
Text: as §1

[24] = biological target: WNK4 (Homo sapiens, UniProt Q96J92); settings: compound concentration 100 nM; Entrez WNK4; read-out: Percent Control
Text: as §1

[25] = biological target: EPHB6 (Homo sapiens, UniProt O15197); settings: 1000 nM, read-out: Percent Control
Text: as §1

[26] = biological target: PLK3 (Homo sapiens, UniProt Q9H4B4); settings: compound concentration 100 nM; Entrez PLK3; read-out: Percent Control
Text: as §1

[27] = biological target: YANK2 (Homo sapiens, UniProt Q9NY57); settings: compound concentration 100 nM; Entrez STK32B; read-out: Percent Control
Sequence of YANK2 (Q9NY57 whole entry): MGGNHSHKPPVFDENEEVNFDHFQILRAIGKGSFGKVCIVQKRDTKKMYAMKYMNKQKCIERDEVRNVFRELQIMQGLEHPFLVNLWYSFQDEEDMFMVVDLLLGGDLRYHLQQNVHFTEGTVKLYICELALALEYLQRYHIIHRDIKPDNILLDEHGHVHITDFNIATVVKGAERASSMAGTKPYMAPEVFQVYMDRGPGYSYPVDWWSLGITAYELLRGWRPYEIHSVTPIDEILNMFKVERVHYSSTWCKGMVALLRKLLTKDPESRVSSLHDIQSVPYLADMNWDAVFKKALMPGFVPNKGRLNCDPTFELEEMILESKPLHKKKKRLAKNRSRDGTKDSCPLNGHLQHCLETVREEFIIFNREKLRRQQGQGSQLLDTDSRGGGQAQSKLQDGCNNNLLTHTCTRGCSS
Text: as §1

[28] = biological target: TYRO3 (Homo sapiens, UniProt Q06418); settings: 1000 nM, read-out: Percent Control
Text: as §1

[29] = biological target: GRK4 (Homo sapiens, UniProt P32298); settings: 1000 nM, read-out: Percent Control
Text: as §1

[30] = biological target: HIPK2 (Homo sapiens, UniProt Q9H2X6); settings: 1000 nM, read-out: Percent Control
Text: as §1

[31] = biological target: STK36 (Homo sapiens, UniProt Q9NRP7); settings: 1000 nM, read-out: Percent Control
Text: as §1

[32] = biological target: PIK3C2B (Homo sapiens, UniProt O00750); settings: compound concentration 100 nM; Entrez PIK3C2B; read-out: Percent Control
Text: as §1

[33] = biological target: TAK1 (Homo sapiens, UniProt O43318); settings: 1000 nM, read-out: Percent Control
Text: as §1

[34] = biological target: TYK2(JH2domain-pseudokinase) (Homo sapiens, UniProt P29597); settings: compound concentration 100 nM; Entrez TYK2; read-out: Percent Control
Text: as §1

[35] = biological target: MYLK2 (Homo sapiens, UniProt Q9H1R3); settings: 1000 nM, read-out: Percent Control
Text: as §1

[36] = biological target: PCTK3 (Homo sapiens, UniProt Q07002); settings: 1000 nM, read-out: Percent Control
Text: as §1

## CN1C(=O)[C@@H](N2CCc3c(nn(Cc4ccccc4)c3C(N)=O)C2=O)COc2cc(Cl)ccc21 [Compound 10, (S)-2-benzyl-6-(8-chloro-5-methyl-4-oxo-2,3,4,5-tetrahydrobenzo[b][1,4]oxazepin-3-yl)-7-oxo-4,5,6,7-tetrahydro-2H-pyrazolo[3,4-c]pyridine-3-carboxamide]
[1]
  remaining binding at 1 µM: 80%
[2]
  remaining binding at 0.1 µM: 68%
[3]
  remaining binding at 1 µM: 94%
[4]; 1000 nM
  remaining binding at 1 µM: 100%
[4]; compound concentration 100 nM, Entrez AURKB
  remaining binding at 0.1 µM: 100%
[5]
  remaining binding at 1 µM: 88%
[6]
  remaining binding at 1 µM: 93%
[7]
  remaining binding at 0.1 µM: 91%
[8]; 1000 nM
  remaining binding at 1 µM: 100%
[8]; compound concentration 100 nM, Entrez CDC42BPG
  remaining binding at 0.1 µM: 92%
[9]
  remaining binding at 1 µM: 94%
[10]
  remaining binding at 1 µM: 97%
[11]
  remaining binding at 1 µM: 82%
[12]
  remaining binding at 1 µM: 94%
[13]
  remaining binding at 0.1 µM: 97%
[14]
  remaining binding at 1 µM: 73%
[15]; 1000 nM
  remaining binding at 1 µM: 100%
[15]; compound concentration 100 nM, Entrez FGR
  remaining binding at 0.1 µM: 77%
[16]; 1000 nM
  remaining binding at 1 µM: 100%
[16]; compound concentration 100 nM, Entrez IRAK1
  remaining binding at 0.1 µM: 100%
[17]
  remaining binding at 1 µM: 71%
[18]
  remaining binding at 1 µM: 67%
[19]
  remaining binding at 1 µM: 87%
[20]; 1000 nM
  remaining binding at 1 µM: 100%
[20]; compound concentration 100 nM, Entrez EPHA2
  remaining binding at 0.1 µM: 100%
[21]
  remaining binding at 0.1 µM: 96%
[22]
  remaining binding at 1 µM: 79%
[23]
  remaining binding at 0.1 µM: 91%
[24]
  remaining binding at 0.1 µM: 100%
[25]
  remaining binding at 1 µM: 94%
[26]
  remaining binding at 0.1 µM: 86%
[27]
  remaining binding at 0.1 µM: 99%
[28]
  remaining binding at 1 µM: 97%
[29]
  remaining binding at 1 µM: 75%
[30]
  remaining binding at 1 µM: 81%
[31]
  remaining binding at 1 µM: 80%
[32]
  remaining binding at 0.1 µM: 86%
[33]
  remaining binding at 1 µM: 82%
[34]
  remaining binding at 0.1 µM: 100%
[35]
  remaining binding at 1 µM: 84%
[36]
  remaining binding at 1 µM: 88%

Source: publication PMC12090182, “Repurposing of the RIPK1-Selective Benzo[1,4]oxazepin-4-one Scaffold for the Development of a Type III LIMK1/2 Inhibitor” (ACS Chemical Biology, 2025)
